The results in this text go back to ChEMBL document CHEMBL1909046, “DrugMatrix in vitro pharmacology data”.

What is called IC50 is the concentration that inhibits the measured activity by half. Usually Ki stands for the dissociation constant of the complex between target and ligand, obtained from inhibition or displacement.

Series [1] can be described thus: DRUGMATRIX: Atrial Natriuretic Factor (ANF) radioligand binding (ligand: [125I] ANF (rat)). In kind it is cell membranes, Cavia porcellus, Dunkin-Hartley, Adrenal gland, Membrane. The following applies: Not Active = under 50% inhibition at 10 µM.
The target in series [2] is T1, 5-hydroxytryptamine receptor 2C (Homo sapiens, UniProt P28335).
T1 sequence (P28335 whole entry): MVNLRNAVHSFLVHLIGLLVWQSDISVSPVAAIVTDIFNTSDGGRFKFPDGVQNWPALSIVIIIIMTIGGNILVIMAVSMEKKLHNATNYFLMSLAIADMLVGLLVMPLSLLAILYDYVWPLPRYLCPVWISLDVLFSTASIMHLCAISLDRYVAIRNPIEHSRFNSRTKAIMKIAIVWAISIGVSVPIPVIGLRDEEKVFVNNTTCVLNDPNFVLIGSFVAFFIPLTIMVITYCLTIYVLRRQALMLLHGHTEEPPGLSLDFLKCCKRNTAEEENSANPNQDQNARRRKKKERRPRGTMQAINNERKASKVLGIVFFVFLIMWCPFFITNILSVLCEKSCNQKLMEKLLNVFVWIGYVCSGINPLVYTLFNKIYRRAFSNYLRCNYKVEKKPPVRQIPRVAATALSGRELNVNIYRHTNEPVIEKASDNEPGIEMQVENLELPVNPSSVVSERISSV
The series is described as follows: DRUGMATRIX: Serotonin (5-Hydroxytryptamine) 5-HT2C radioligand binding (ligand: [3H] Mesulergine). Format: cell membranes, CHO-K1, Membrane. Particulars: Not Active = under 50% inhibition at 10 µM.

Series [3] in a line: DRUGMATRIX: Tumor Necrosis Factor (TNF), Non-Selective radioligand binding (ligand: [125I] TNF-alpha). In kind it is cell membranes, Membrane. The following applies: u-937; Not Active = under 50% inhibition at 10 µM.
The target in series [4] is Prostaglandin G/H synthase 1 (Homo sapiens, UniProt P23219). Kind of series: biochemical. Format: tissue-based, Platelet. Particulars: platelet.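 Note: inhibition of COX-1 enzyme activity, with arachidonic acid supplied as substrate; in other assays of this panel Not Active means under 50% inhibition at 10 µM.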
Series [5] can be described thus: DRUGMATRIX: Glutamate, NMDA, Agonism radioligand binding (ligand: [3H] CGP-39653). Particulars: Not Active = under 50% inhibition at 10 µM. In kind it is cell membranes, Rattus norvegicus, Wistar, Cerebral cortex, Membrane.
Series [6] in a line: DRUGMATRIX: Nicotinic Acetylcholine radioligand binding (ligand: [125I] Epibatidine). In kind it is cell membranes, Membrane. The following applies: imr-32; Not Active = under 50% inhibition at 10 µM.
The target of series [7] is Platelet-activating factor receptor (Homo sapiens, UniProt P25105). Kind of series: biochemical. Particulars: platelet. Format: tissue-based. Note: in other assays of this panel Not Active means under 50% inhibition at 10 µM.
Series [8] addresses T2, Angiotensin-converting enzyme (Oryctolagus cuniculus, UniProt P12822).
T2 sequence (P12822 whole entry): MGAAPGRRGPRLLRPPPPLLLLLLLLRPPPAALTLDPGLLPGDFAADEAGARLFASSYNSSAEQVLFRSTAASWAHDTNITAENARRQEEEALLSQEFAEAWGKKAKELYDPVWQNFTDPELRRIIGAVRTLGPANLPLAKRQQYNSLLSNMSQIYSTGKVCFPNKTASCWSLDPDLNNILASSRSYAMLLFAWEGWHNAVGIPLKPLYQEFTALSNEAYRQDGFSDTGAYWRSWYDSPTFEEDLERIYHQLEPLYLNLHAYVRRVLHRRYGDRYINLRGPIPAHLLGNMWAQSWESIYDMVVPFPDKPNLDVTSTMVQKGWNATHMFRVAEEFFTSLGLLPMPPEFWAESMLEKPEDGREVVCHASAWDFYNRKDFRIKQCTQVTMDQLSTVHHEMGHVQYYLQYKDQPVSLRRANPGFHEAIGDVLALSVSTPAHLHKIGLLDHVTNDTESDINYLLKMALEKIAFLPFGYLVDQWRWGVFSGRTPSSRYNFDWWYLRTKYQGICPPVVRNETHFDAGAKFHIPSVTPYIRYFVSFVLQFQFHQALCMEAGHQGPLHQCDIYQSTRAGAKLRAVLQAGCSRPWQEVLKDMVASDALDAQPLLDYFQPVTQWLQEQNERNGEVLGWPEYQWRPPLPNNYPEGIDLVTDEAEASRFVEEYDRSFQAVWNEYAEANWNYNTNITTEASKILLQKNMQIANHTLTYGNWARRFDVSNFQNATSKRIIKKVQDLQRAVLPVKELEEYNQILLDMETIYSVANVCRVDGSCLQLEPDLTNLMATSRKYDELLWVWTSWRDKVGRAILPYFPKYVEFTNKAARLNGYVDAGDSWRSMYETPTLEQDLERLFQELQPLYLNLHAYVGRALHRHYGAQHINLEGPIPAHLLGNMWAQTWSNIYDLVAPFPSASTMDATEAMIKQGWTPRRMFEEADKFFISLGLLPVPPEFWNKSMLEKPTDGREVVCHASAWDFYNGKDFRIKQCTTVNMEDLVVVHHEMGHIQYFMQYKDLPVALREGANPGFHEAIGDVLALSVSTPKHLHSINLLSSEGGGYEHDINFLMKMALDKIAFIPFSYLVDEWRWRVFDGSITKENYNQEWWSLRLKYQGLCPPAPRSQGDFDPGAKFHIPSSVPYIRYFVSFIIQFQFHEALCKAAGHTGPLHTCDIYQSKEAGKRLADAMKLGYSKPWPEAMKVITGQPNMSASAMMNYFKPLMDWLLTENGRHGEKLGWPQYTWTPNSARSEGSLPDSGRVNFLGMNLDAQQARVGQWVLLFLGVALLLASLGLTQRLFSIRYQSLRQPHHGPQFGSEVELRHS
Kind of series: biochemical. Format: tissue-based, Lung.

In another series the target is T3, Caspase-1 (Homo sapiens, UniProt P29466).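 Note: Caspase-1 enzyme inhibition assay with a peptide substrate; in other assays of this panel Not Active means under 50% inhibition at 10 µM.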
T3 sequence (P29466 whole entry): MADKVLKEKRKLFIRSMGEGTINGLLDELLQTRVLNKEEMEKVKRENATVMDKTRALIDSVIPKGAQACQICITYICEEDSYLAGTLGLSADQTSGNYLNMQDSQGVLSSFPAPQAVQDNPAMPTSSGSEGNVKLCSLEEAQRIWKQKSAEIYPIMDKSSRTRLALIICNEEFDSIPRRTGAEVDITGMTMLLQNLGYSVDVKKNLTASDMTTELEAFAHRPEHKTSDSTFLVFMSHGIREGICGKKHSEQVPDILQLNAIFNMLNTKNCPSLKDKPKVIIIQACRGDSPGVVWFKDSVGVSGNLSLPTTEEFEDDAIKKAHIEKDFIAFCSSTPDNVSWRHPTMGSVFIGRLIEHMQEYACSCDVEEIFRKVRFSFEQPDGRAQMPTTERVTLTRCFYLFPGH
Also on record: species or system Escherichia coli.

Series [9] concerns the target Protein kinase C alpha type (Homo sapiens, UniProt P17252). Format: cell-based. Particulars: sf9.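 Note: inhibition of PKCalpha kinase activity measured in an enzyme assay with histone as the phosphorylation substrate; in other assays of this panel Not Active means under 50% inhibition at 10 µM.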
For series [10], the target named is Beta-2 adrenergic receptor (Homo sapiens, UniProt P07550). The series is described as follows: DRUGMATRIX: Adrenergic beta2 radioligand binding (ligand: [3H] CGP-12177). The following applies: cho; Not Active = under 50% inhibition at 10 µM. In kind it is cell membranes, Membrane.
A further series has as its target Cytochrome P450 3A4 (Homo sapiens, UniProt P08684). Particulars: bti-tn-5b1-4. Note: in other assays of this panel Not Active means under 50% inhibition at 10 µM.

Each structure is given as a SMILES string.

Chain of Beta-2 adrenergic receptor (P07550 whole entry): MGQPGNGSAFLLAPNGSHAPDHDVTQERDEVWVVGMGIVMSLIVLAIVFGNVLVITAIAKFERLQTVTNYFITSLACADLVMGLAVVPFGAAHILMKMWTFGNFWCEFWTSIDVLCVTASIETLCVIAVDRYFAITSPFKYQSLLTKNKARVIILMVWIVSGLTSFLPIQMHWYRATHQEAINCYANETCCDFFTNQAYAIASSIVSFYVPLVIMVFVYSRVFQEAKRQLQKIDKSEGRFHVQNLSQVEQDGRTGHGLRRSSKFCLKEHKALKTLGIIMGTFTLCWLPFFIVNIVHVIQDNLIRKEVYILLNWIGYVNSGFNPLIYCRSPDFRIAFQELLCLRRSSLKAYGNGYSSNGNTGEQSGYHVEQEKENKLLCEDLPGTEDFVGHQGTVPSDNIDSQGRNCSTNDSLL
Chain of Platelet-activating factor receptor (P25105 whole entry): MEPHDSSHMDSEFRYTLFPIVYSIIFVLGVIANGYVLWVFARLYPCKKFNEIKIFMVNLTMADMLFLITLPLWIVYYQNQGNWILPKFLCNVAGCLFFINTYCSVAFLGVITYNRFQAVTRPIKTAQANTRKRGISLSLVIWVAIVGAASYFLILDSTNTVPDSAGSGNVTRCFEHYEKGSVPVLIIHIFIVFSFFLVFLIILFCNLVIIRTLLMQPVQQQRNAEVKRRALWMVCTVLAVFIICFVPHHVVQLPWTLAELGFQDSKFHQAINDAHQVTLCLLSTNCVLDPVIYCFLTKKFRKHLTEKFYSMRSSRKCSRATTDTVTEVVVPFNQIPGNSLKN
Chain of Prostaglandin G/H synthase 1 (P23219 whole entry): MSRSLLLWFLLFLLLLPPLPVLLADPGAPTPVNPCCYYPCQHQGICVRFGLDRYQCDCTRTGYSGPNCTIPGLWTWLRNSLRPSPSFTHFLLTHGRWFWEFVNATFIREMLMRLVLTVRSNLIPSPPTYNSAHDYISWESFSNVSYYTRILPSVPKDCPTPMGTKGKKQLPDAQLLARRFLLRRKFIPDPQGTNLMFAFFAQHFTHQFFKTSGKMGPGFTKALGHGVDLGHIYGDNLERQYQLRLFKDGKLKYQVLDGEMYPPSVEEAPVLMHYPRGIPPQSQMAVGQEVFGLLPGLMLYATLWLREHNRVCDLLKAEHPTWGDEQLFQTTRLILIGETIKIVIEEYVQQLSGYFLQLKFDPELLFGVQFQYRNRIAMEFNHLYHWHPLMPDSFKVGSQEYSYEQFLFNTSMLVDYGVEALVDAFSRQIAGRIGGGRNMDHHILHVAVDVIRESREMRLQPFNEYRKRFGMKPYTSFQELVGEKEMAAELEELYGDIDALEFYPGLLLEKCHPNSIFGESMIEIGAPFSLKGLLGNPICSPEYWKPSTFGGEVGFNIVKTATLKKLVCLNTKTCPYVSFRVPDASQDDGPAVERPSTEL
Chain of Cytochrome P450 3A4 (P08684 whole entry): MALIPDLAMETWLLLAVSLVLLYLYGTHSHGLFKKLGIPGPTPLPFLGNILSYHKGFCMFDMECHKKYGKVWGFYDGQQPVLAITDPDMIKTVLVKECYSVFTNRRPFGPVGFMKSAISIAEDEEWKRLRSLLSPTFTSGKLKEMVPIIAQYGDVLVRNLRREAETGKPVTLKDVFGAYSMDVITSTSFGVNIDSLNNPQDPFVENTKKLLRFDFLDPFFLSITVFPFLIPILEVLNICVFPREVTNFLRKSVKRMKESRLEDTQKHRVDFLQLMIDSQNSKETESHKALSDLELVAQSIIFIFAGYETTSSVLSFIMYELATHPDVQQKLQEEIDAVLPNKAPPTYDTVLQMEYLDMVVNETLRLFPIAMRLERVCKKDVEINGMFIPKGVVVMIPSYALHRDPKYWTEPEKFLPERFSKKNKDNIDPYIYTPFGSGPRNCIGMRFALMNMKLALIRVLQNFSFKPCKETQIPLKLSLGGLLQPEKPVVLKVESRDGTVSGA

As for `CC(C)NC[C@H](O)COc1cccc2[nH]ccc12`, the IC50 entry in [1], in series [2] (cho-k1), in [3], in [4], in [5] and in series [6] was “Not Active” each time. Also, the half-maximal inhibitory concentration (IC50) result (in series [7]; in series [8]; at Caspase-1; in [9]) was “Not Active” each time. Besides, the Ki result in series [1], in [3], in series [5] and in [6] was “Not Active” each time.

Take `CCCSc1ccc2nc(NC(=O)OC)[nH]c2c1` [ALBENDAZOLE]: the 50% inhibitory concentration (IC50) entry in series [10], in [1], in [2] (cho-k1), in series [3], in series [4] and in [5] was “Not Active” throughout. In addition, the concentration for half-maximal inhibition (IC50) entry (in [6]; in [7]; in series [8]; against Caspase-1; in series [9]) was “Not Active” each time. The inhibition constant (Ki) result in series [1], in [3], in series [5] and in series [6] was “Not Active” each time.

Regarding `CN(C)CCCC1(c2ccc(F)cc2)OCc2cc(C#N)ccc21` (stereo not drawn) [CITALOPRAM], the concentration for half-maximal inhibition (IC50) result in series [10], in series [1], in series [3], in series [4], in [5] and in [6] was “Not Active” throughout. Moreover, the IC50 entry (in [7]; in series [8]; against Caspase-1; in series [9]; against Cytochrome P450 3A4) was “Not Active” in each case. Further, the Ki result (in series [1]; in series [3]; in series [5]; in series [6]; on Cytochrome P450 3A4) was “Not Active” throughout.

Turning to `CN1C[C@H](C(=O)N[C@]2(C)O[C@@]3(O)[C@@H]4CCCN4C(=O)[C@H](Cc4ccccc4)N3C2=O)C=C2c3cccc4[nH]cc(c34)C[C@H]21` [ERGOTAMINE], the IC50 result was “Not Active” in series [1]; 56 nM in series [2] (read-out: IC50); “Not Active” in series [3]; “Not Active” in series [4]; “Not Active” in series [5]; “Not Active” in series [6]. In addition, the half-inhibitory concentration (IC50) entry (in [7]; in series [8]; on Caspase-1; in series [9]) was “Not Active” in each case. In addition, the Ki entry in series [1] is “Not Active”; in series [2] (read-out: Ki) it was 29 nM; in [3], “Not Active”; in series [5], “Not Active”; in series [6] it was “Not Active”.

As for `CCc1cccc2c3c([nH]c12)C(CC)(CC(=O)O)OCC3` (stereo not drawn) [ETODOLAC], the IC50 result in series [10], in series [1], in series [2] (cho-k1), in [3], in [5] and in [6] was “Not Active” in each case. The IC50 entry (in series [7]; in series [8]; on Caspase-1; in series [9]; at Cytochrome P450 3A4) was “Not Active” in each case. Further, the Ki entry (in [1]; in series [3]; in [5]; in [6]; at Cytochrome P450 3A4) was “Not Active” throughout.

For the compound `CNCCC=C1c2ccccc2CCc2ccccc21` [NORTRIPTYLINE], the IC50 entry in series [10], in series [1], in series [3], in series [4], in series [5] and in [6] was “Not Active” each time. The IC50 entry (in series [7]; in [8]; against Caspase-1; in series [9]; at Cytochrome P450 3A4) was “Not Active” throughout. Further, the inhibitory constant (Ki) entry (in series [1]; in [3]; in series [5]; in series [6]; at Cytochrome P450 3A4) was “Not Active” throughout.

As for `CN1C(C(=O)Nc2ccccn2)=C(O)c2ccccc2S1(=O)=O` [PIROXICAM], the IC50 entry in [10], in [1], in series [2] (cho-k1), in series [3], in series [5] and in series [6] was “Not Active” each time. The 50% inhibitory concentration (IC50) result (in [7]; in series [8]; against Caspase-1; in series [9]; on Cytochrome P450 3A4) was “Not Active” in each case. Also, the inhibition constant Ki entry (in series [1]; in [3]; in series [5]; in [6]; on Cytochrome P450 3A4) was “Not Active” throughout.
